The subject of assay [1] is Neuro-2a cells. In words: formation of intracellular inclusions / NFT-like structures in cells transfected with truncated apoE constructs. The class given is cell-based, mouse. The conditions noted are these: constructs with deletion of 28 carboxyl-terminal amino acids. As to the method:
(§1) Cell cultures—Murine neuroblastoma (Neuro-2a) cells were obtained from American Type Culture Collection (Rockville, Md.). Neuro-2a cells were maintained at 37° C. in a humidified 5% CO2 incubator in MEM-containing 10% FBS, supplemented with non-essential amino acids, penicillin, and streptomycin.
(§2) Transient transfection of cells—Neuro-2a, NT2-N, or cultured mouse primary neurons were transiently transfected with various apoE cDNA constructs, as listed in Table I, by using lipofectamine method. Briefly, 2 μg of apoE DNA were pre-incubated with 7 μl of lipofectamine in 200 μl of serum-free MEM containing N2-supplements at room temperature for 30 minutes. After addition of 800 μl of serum-free MEM containing N2-supplements, the mixture was added into the cells that had been washed three times with serum-free MEM. Ten to forty-eight hours later, the transfected cells were used for different experiments.
Immunocytochemistry—Neuro-2a cells were grown in 2-well chamber slides for 24 hours and were then transiently transfected with different apoE3 or apoE4 DNA constructs, as described above. […]
For the cells transiently transfected with GFP-apoE DNA constructs, after fixed in 3% paraformaldehyde and washed twice in PBS, the green fluorescence was viewed directly with a MRC-1024 laser scanning confocal system (Bio-Rad) as described above. […]

The test system of assay [2] is Neuro-2a cells. In words: incubation of cells with exogenous recombinant apoE4(Δ272-299) complexed with β-VLDL. The conditions noted are these: 30 hours incubation. It is filed as cell-based, mouse. On the procedure: In human brains, apoE is synthesized and secreted primarily by astrocytes, although human neurons are capable of producing apoE. The secreted apoE can be internalized by neurons. To determine whether internalized apoE4(Δ272-299) can induce formation of NFT-like structures in neurons. Neuro-2a cells were incubated with recombinant apoE4(Δ272-299), which had been complexed with the lipid transport vehicle β-VLDL. After 30 hours incubation, neurite outgrowth and the formation of NFT-like structures in the cells were determined. […] These structures were identical to the tangle-like structures formed in Neuro-2a cells expressing GFP-apoE4(Δ272-299) in the cytosol. Therefore internalized apoE4(Δ272-299) can escape the endosomal-lysosomal pathway and interact with cytosolic p-tau and p-NF—H.

For assay [3], the system named is Neuro2a cells expressing apoE3. In words: formation of apoE and p-tau immunoreactive intracellular inclusions after Aβ or ER stress inducers. It is filed as cell-based, mouse. The note with it: untreated 0%; p<0.001. As to the method:
as §1, §2
(§3) Immunocytochemistry—Neuro-2a cells were grown in 2-well chamber slides for 24 hours and were then transiently transfected with different apoE3 or apoE4 DNA constructs, as described above. After washing twice in PBS, the transfected cells were fixed with 3% paraformaldehyde in PBS for 30 minutes at room temperature, washed twice in PBS, and then permeabilized with Triton-X100 for 5 minutes which was followed by three washes in PBS.
(§4) To block nonspecific reactions, all slides were incubated for 1 hour at room temperature with PBS containing 2% BSA and 10% normal serum (Vector) derived from the same species as the source of secondary antibody (sheep or rabbit), followed by a 1-hour incubation with the primary antibody (monospecific rabbit anti-human apoE, 1:500; monoclonal anti-p-tau, 1:100-1:1000, anti-p-NF—H, 1:100-1:500) in PBS containing 2% BSA.
(§5) Slides were then washed three times in PBS containing 2% BSA and incubated for 1 hour at room temperature with the secondary antibody (FITC-coupled anti-rabbit IgG to detect antigen-bond anti-human apoE, Rodamine- or Cy5-coupled anti-mouse IgG to detect antigen-bond anti-p-tau or anti-p-NF—H). After three washes in PBS containing 2% BSA, immunofluorescently labeled slides were mounted in VectaShield (Vector) and viewed with a MRC-1024 laser scanning confocal system (Bio-Rad) mounted on an Optiphot-2 microscope (Nikon, Tokyo, Japan).
(§6) Since Aβ deposition is a major pathological component within the brains of Alzheimer's disease patients, we determined the effect of Aβ treatment on the formation of apoE and p-tau immunoreactive intracellular inclusions in Neuro2a cells expressing apoE.
(§7) Since Aβ treatment of cells can cause ER stress (TN98), other ER stress inducers, including Brefeldin A (BfA) and tunicamycin (TN98), were used to determine whether ER stress can increase the formation of intracellular inclusions in apoE transfected Neuro2a cells. Incubation with either BfA or tunicamycin increased the inclusion-positive cells from 2.7±1.2% to 7.2±2.1% (p<0.001) in apoE4 expressing cells and from 0% to 3.2±1.1% (p<0.001) in apoE3 expressing cells.

Assay [4] has as its system Neuro2a cells expressing apoE4. The assay is described as above. It is filed as cell-based, mouse. The conditions noted are these: untreated 2.7±1.2%; p<0.001. As to the method: as §1, §2, §3, §4, §5, §6, §7
In assay [5] the test system is Neuro-2a cells expressing apoE3 or apoE4. In words: generation of carboxyl-terminal truncated apoE in cells incubated with Aβ1-42, immunoprecipitation and anti-apoE western blotting. It is filed as cell-based, mouse. The note with it: more so with apoE4. As to the method:
Immunoprecipitation and western blotting—Neuro-2a cells were grown to 80% confluence in 6-well plates or 15-cm dishes and were then transiently transfected with different apoE DNA constructs, as described above. Twenty-four to forty-eight hours later, the cells were harvested and lysed in ice-cold lysis buffer for 30 minutes. After spinning to remove nuclei (13,000 rpm for 15 minutes), apoE in supernatant was immunoprecipitated with monospecific rabbit anti-human apoE antibody and protein-A agarose beads. The immunoprecipitates were washed twice with lysis buffer and three times with PBS. The presence of apoE, p-tau, or p-NF—H in the immunoprecipitates was analyzed by western blotting using the corresponding antibodies. Alternatively, the supernatants of cell lysates were immunoprecipited with monoclonal anti-p-tau or anti-p-NF—H antibodies and, then, the presence of apoE was analyzed by anti-apoE western blotting.
Since Aβ1-42 increased formation of intracellular inclusions in Neuro2a cells expressing apoE4, we next determined whether treatment of the transfected cells with Aβ will increase generation of the carboxyl-terminal truncated form of apoE. Neuro-2a cells expressing apoE3 or apoE4 were incubated with Aβ1-42, then, intracellular apoE was immunoprecipitated and detected by anti-apoE western blotting. […]
On the technique in general: In western blotting, separated proteins are transferred to a membrane and probed.

Assay [6] deals with apoE cleavage enzyme. Description: chromogenic assay with Ala-Ala-Pro-Phe-p-nitroanilide as substrate. The note with it: 1 mM Ala-Ala-Pro-Phe-p-nitroanilide substrate. The class given is biochemical, mouse. As to the method: To monitor the cleavage activity, a chromogenic group (p-nitroanilide) was added to the carboxyl-side of the last amino acid at the C-terminus. If the enzyme cuts the bond between the last amino acid and p-nitroanilide, the released p-nitroanilide will yield a yellow color, which can be monitored by a spectrophotometer at about 390-410 nm.
Importantly, a proline at the P2 position and two hydrophobic amino acids (such as alanine, Ala) at the P3 and P4 positions are critical for determining the efficiency of the cleavage. Taken together, the putative apoE cleavage enzyme is a chymotrypsin-like serine protease, which recognizes the motif of Ala-Ala-Pro-Phe (SEQ ID NO:1), Ala-Ala-Pro-Met (SEQ ID NO:2), Ala-Ala-Pro-Leu (SEQ ID NO:3), or a similar sequence in the substrate peptides or proteins. By using Ala-Ala-Pro-Phe-p-nitroanilide as a substrate, the chromogenic assay can be used as a high-throughput method to screen drugs, agents, or chemical compounds that inhibit apoE cleavage activity. Para-nitroanilide is detected spectrophotometrically at about 390-410 nm.
By using the chromogenic assay, in which 1 mM Ala-Ala-Pro-Phe-p-nitroanilide was used as the substrate, we screened many peptides towards the inhibition of the apoE cleavage enzyme activity.

Assay [7] deals with apoE cleavage enzyme. Description: inhibition of apoE4 cleavage by partially purified apoE cleavage enzyme, anti-apoE western blot. The class given is biochemical, mouse. The note with it: peptide 1 mM, 4 μg apoE4, 3 hours at 37° C. From the text: The peptides Ala-Ala-Pro-Phe (SEQ ID NO:1) and Ala-Ala-Pro-Leu (SEQ ID NO:3) were further tested for the inhibition of apoE cleavage. […] Thus, both Ala-Ala-Pro-Phe (SEQ ID NO:1) and Ala-Ala-Pro-Leu (SEQ ID NO:3) can be used as peptide inhibitors for the apoE cleavage enzyme.

In assay [8] the test system is apoE cleavage enzyme. In words: cleavage of apoE4 in the presence of known protease inhibitors, anti-apoE western blot. The class given is biochemical, mouse. On the procedure:
To test this hypothesis, purified human apoE3 or apoE4 were incubated with brain lysates of apoE knockout mice at 37° C. for 3 hours and the proteolysis of apoE was analyzed by anti-apoE western blot.
To determine the biochemical properties of the putative apoE cleavage enzyme, we tested the effects of different known inhibitors for four major categories of proteases, i.e., serine proteases, cysteine proteases, aspartate proteases, and metalloproteases.

Setting [9] is: 6 mM peptide, 20 hour incubation.

Square brackets hold non-standard residues; d marks the D form. Peptide text beside a SMILES is read from it. * marks the point of attachment. Sta = CC(C)C[C@H](N)[C@@H](O)CC(=O)O; Isovaleryl = CC(C)CC(=O)*

Take “apoE4 (Δ272-299): apoE4 with deletion of 28 carboxyl-terminal amino acids”: in the assay on Neuro-2a cells [1], the “transfected cells displaying the intracellular filamentous inclusions” value came to 78±8%. The neurite outgrowth entry with Neuro-2a cells [2] is on record as “did not show neurite outgrowth”. Also, the “formation of NFT-like structures” value in the assay with Neuro-2a cells [2] (anti-apoE immunofluorescent staining) is “NFT-like structures were formed”.

Regarding Aβ1-42: amyloid beta (Aβ) peptide 1-42, the “inclusion-positive apoE3 expressing cells after treatment” value in assay [3] is reported as 2.8±0.6%. Further, the “inclusion-positive apoE4 expressing cells after treatment” value in assay [4] is on record as 6.7±1.5%. For the same compound, the “amounts of the carboxyl-terminal truncated forms of both apoE3 and apoE4” value in assay [5] was “significantly increased”.

“Ala-Ala-Pro-Phe (AAPF; OTHER INFORMATION: synthetic peptide)”: in the assay on apoE cleavage enzyme [6] (setting [9]), the “inhibition of apoE cleavage enzyme activity” value was 67%. Further, the “inhibition of apoE cleavage” value with apoE cleavage enzyme [7] is recorded as “significant inhibition”.

“Ala-Ala-Pro-Leu (AAPL; OTHER INFORMATION: synthetic peptide)”: the “inhibition of apoE cleavage enzyme activity” value in the assay with apoE cleavage enzyme [6] (setting [9]) was 56%. Besides, the “inhibition of apoE cleavage” value in the assay with apoE cleavage enzyme [7] was “significant inhibition”.

For the compound `O=C(O)CN(CCOCCOCCN(CC(=O)O)CC(=O)O)CC(=O)O` [EGTA], the “inhibition of the cleavage of apoE4” value in the assay on apoE cleavage enzyme [8] was “did not inhibit”.

Regarding `CC(C)CC(=O)N[C@H](C(=O)N[C@H](C(=O)N[C@@H](CC(C)C)[C@@H](O)CC(=O)N[C@@H](C)C(=O)N[C@@H](CC(C)C)[C@@H](O)CC(=O)O)C(C)C)C(C)C` [pepstain] (Isovaleryl-VV[Sta]A[Sta]-OH), in the assay on apoE cleavage enzyme [8], the “inhibition of the cleavage of apoE4” value is given as “did not inhibit”.

Consider `O=S(=O)(F)Cc1ccccc1` [PMSF], for which, in the assay on apoE cleavage enzyme [8], the “inhibition of the cleavage of apoE4” value was “totally abolished”.

Take tunicamycin: the “inclusion-positive apoE3 expressing cells after treatment” value in assay [3] worked out at 3.2±1.1%. In assay [4], the “inclusion-positive apoE4 expressing cells after treatment” value is recorded as 7.2±2.1%.

“apoE4: human apolipoprotein E isoform apoE4, full-length”: in the assay on apoE cleavage enzyme [6] (7 μM apoE4), the “inhibition of apoE cleavage enzyme activity” value turned out to be 89%.

On to `CC(C)C[C@H](NC(=O)[C@H]1O[C@@H]1C(=O)O)C(=O)NCCCCN=C(N)N` [E-64], for which, in the assay with apoE cleavage enzyme [8], the “inhibition of the cleavage of apoE4” value is “did not inhibit”.

`C[C@H]1CCC/C=C/[C@@H]2C[C@H](O)C[C@H]2[C@H](O)/C=C/C(=O)O1` [BfA, Brefeldin A]: the “inclusion-positive apoE3 expressing cells after treatment” value in assay [3] stood at 3.2±1.1%. Also, the “inclusion-positive apoE4 expressing cells after treatment” value in assay [4] is 7.2±2.1%.

The values above are taken from patent publication US6787519B2, “Methods of treating disorders related to apoE” (The Regents of the University of California, priority 2000, dated 2004).
